The structures appear in SMILES notation. Calls of active or inactive are those of the source.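 How the source made its calls: active means tumour findings in long-term animal cancer tests in more than one sex, species or organ; inactive means no tumour finding and more than one negative test.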 *1 amine or outer side, *2 acyl side, *3 side chain or, on linkers, in order; H or OH if unused. Where a SMILES comes first, the peptide text is derived from it. Bridges are numbered along the chain shown (N, C = ends). Roman numbers before positions name the chains, in order. [ ]: non-standard residue; d: D form. Actinocin(9to1) = Cc1c2oc3c(C)ccc(C(=O)[*:1])c3nc-2c(C(=O)[*:2])c(N)c1=O; NMeV = CN[C@H](C(=O)O)C(C)C; Sar = CNCC(=O)O

Drawing on PubChem BioAssay AID1205 (EPA DSSTox, 2008), this text covers outcome for 87 molecules.

The nature of the data set: DSSTox (CPDBAS) Carcinogenic Potency Database Summary MultiCellCall Results. Particulars: animal carcinogenicity bioassays, multi-cell call summary. The method in brief:
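Summary call drawn from chronic long-term cancer bioassays in rats, mice, hamsters, dogs and nonhuman primates, using the most positive result per sex-species. Score: multispecies=50, multisex=30, multisite=20, summed for combinations.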
On to `C=C(C)[C@H]1CC=C(C)C(=O)C1`, for which the outcome was “inactive; multisex inactive”.

In the case of `CN(CCCC(=O)c1cccnc1)N=O`, the outcome was “active; multisite active”.

Consider `O=P(OCCCl)(OCCCl)OCCCl`, for which the outcome is “active; multisite active; multisex active; multispecies active”.

`O=NN(CCO)CCO`: the outcome is “active; multisite active; multisex active”.

`CCN(N)C=O`: the outcome was “active; multisite active; multisex active”.

Consider `Cc1c2oc3c(C)ccc(C(=O)N[C@@H]4C(=O)N[C@H](C(C)C)C(=O)N5CCC[C@H]5C(=O)N(C)CC(=O)N(C)[C@@H](C(C)C)C(=O)O[C@@H]4C)c3nc-2c(C(=O)N[C@@H]2C(=O)N[C@H](C(C)C)C(=O)N3CCC[C@H]3C(=O)N(C)CC(=O)N(C)[C@@H](C(C)C)C(=O)O[C@@H]2C)c(N)c1=O` (I: T[dV]P[Sar][NMeV] / II: T[dV]P[Sar][NMeV]; ester I:1-I:C, II:1-II:C; linker I:N-II:N via Actinocin(9to1)), for which the outcome is “active; multisex active”.

Take `CC(O)CCl` (configuration not stated): the outcome is “inactive; multisex inactive; multispecies inactive”.

`CCCCN(CCCC)C(=S)[S-].CCCCN(CCCC)C(=S)[S-].[Zn+2]`: the outcome is “inactive; multisex inactive”.

For the molecule `O=C(O)COc1cc(Cl)c(Cl)cc1Cl`, the outcome is “inactive; multisex inactive; multispecies inactive”.

With `CCN(CC)C(=S)S[Te](SC(=S)N(CC)CC)(SC(=S)N(CC)CC)SC(=S)N(CC)CC`, the outcome was “inactive; multisex inactive; multispecies inactive”.

Take `CCCCOC(=O)c1ccc(O)cc1`: the outcome is “inactive; multisex inactive”.

Take `Brc1cc(Br)c(-c2c(Br)c(Br)c(Br)c(Br)c2Br)c(Br)c1Br`: the outcome was “active; multisex active”.

As to `NC(=O)CCCCC(N)=O`, the outcome was “inactive; multisex inactive; multispecies inactive”.

Turning to `CN[C@H]1CC[C@@H](c2ccc(Cl)c(Cl)c2)c2ccccc21`, the outcome is “inactive; multisex inactive; multispecies inactive”.

With `CCOC(=O)C(O)(c1ccc(Cl)cc1)c1ccc(Cl)cc1`, the outcome is “active; multisex active”.

Turning to `NC(=O)N(CCCO)N=O`, the outcome is “active; multisex active”.

With `O=NN1CCCCC1c1cccnc1` (configuration not stated), the outcome was “active; multisex active”.

On to `CCCCCCCCCc1ccc(OCCOCCO)cc1`, for which the outcome is “inactive; multispecies inactive”.

Take `Cn1cc[nH]c1=S`: the outcome was “active; multisex active”.

Take `CCOP(=S)(OCC)SC1OCCOC1SP(=S)(OCC)OCC` (configuration not stated): the outcome is “inactive; multisex inactive; multispecies inactive”.

As for `c1ccc2occc2c1`, the outcome is “active; multisite active; multisex active; multispecies active”.

In the case of `Nc1ccc(Nc2ccccc2)cc1`, the outcome was “inactive; multisex inactive; multispecies inactive”.

For the molecule `CCCc1cc(=O)[nH]c(=S)[nH]1`, the outcome is “active; multisite active; multisex active; multispecies active”.

For `NC(=O)/C(=C\c1ccc([N+](=O)[O-])o1)c1ccco1`, the outcome was “active; multisite active; multisex active; multispecies active”.

Consider `C=CC=C`, for which the outcome was “active; multisite active; multisex active; multispecies active”.

With `c1ccc2sc(SSc3nc4ccccc4s3)nc2c1`, the outcome was “inactive; multisex inactive”.

`CC1=C(C)C(=O)C(C(CCCCCC(=O)O)c2ccccc2)=C(C)C1=O` (configuration not stated): the outcome was “inactive; multisex inactive”.

Regarding `CCCCNNCCCC`, the outcome is “active; multisite active; multisex active”.

For `O=NN1CCCCCCCCCCCC1`, the outcome was “active; multisex active”.

For the molecule `CCC(O)OC(O)CC` (configuration not stated), the outcome was “inactive; multisex inactive; multispecies inactive”.

For `O=C(O)Cc1cccc2ccccc12`, the outcome was “inactive; multisex inactive”.

With `CC(=O)CN(CCO)N=O`, the outcome was “active; multisite active; multispecies active”.

On to `Cc1ccc(S(=O)(=O)Oc2ccc(N=Nc3ccc(-c4ccc(N=Nc5c(O)ccc6cc(S(=O)(=O)O)cc(S(=O)(=O)O)c56)c(C)c4)cc3C)cc2)cc1`, for which the outcome is “active; multisite active; multisex active”.

Consider `Cc1cc(N=Nc2c(O)ccc3ccccc23)c(S(=O)(=O)O)cc1Cl`, for which the outcome is “active; multisite active”.

On to `O=NN1CCOC1=O`, for which the outcome was “active; multisite active”.

Consider `CCCNN`, for which the outcome was “active; multisex active”.

On to `O=[N+]([O-])c1cccc2ccccc12`, for which the outcome was “inactive; multisex inactive; multispecies inactive”.

In the case of `OCCN(CCO)CCO`, the outcome was “active; multisex active”.

On to `Cc1ccc2ccccc2c1`, for which the outcome is “inactive; multisex inactive”.

For `CC=O`, the outcome was “active; multisite active; multisex active; multispecies active”.

Regarding `[O-]/[N+](=N\O)c1ccccc1`, the outcome is “active; multisite active; multisex active; multispecies active”.

As to `CN1C2CC[C@@H]1CC(NC(=O)c1cc(Cl)cc3c1OC(C)(C)C3)C2` (some centres not stated), the outcome was “inactive; multisex inactive”.

With `C=C1C(C)(C)[C@@]2(Cl)C(Cl)[C@]1(Cl)C(Cl)(Cl)C2(Cl)Cl` (some centres not stated), the outcome is “active; multisite active”.

Regarding `ClC1=C(Cl)C2(Cl)C3C(Cl)C=CC3C1(Cl)C2(Cl)Cl` (configuration not stated), the outcome was “active; multisex active”.

Turning to `CCCCCN(N=O)C(N)=O`, the outcome is “active; multisite active; multisex active”.

Take `CN(C)[C@@H]1C(=O)C(C(N)=O)=C(O)[C@@]2(O)C(=O)C3=C(O)c4c(O)cccc4[C@@](C)(O)[C@H]3C[C@@H]12`: the outcome was “inactive; multisex inactive; multispecies inactive”.

Take `CN(CCCC(O)c1cccnc1)N=O` (configuration not stated): the outcome is “active; multisite active”.

As to `Cc1cc(O)cc(C)c1N(C)C`, the outcome was “inactive; multisex inactive”.

On to `C=C(C)C(=O)OC`, for which the outcome was “inactive; multisex inactive; multispecies inactive”.

As to `O=S(=O)([O-])[O-].[Cd+2]`, the outcome was “active; multisex active”.

`Cc1c(COC(=O)C2C(/C=C(\Cl)C(F)(F)F)C2(C)C)cccc1-c1ccccc1` (configuration not stated): the outcome was “inactive; multisex inactive”.

On to `Cn1cnc([N+](=O)[O-])c1Sc1ncnc2nc[nH]c12`, for which the outcome was “active; multisite active”.

In the case of `Cc1ccc2c(c1)C(N1CCN(C)CC1)=Nc1ccccc1S2`, the outcome is “inactive; multisex inactive”.

As to `CC1=NN(c2ccccc2)C(=O)C1`, the outcome was “inactive; multisex inactive; multispecies inactive”.

As to `CCN(CC)C(=S)[S-].CCN(CC)C(=S)[S-].[Zn+2]`, the outcome is “inactive; multisex inactive”.

For the molecule `Nc1ccc(N=Nc2ccc(N)cc2)cc1`, the outcome was “inactive; multisex inactive”.

Turning to `NCCCC(N)(C(=O)O)C(F)F` (configuration not stated), the outcome is “inactive; multisex inactive”.

Turning to `C=C(C)C#N`, the outcome is “inactive; multisex inactive; multispecies inactive”.

With `O=C(O)c1ccncc1`, the outcome is “inactive; multisex inactive; multispecies inactive”.

With `CC(=O)OCc1ccccc1`, the outcome is “active; multisite active; multisex active”.

Regarding `CC(N)Cc1ccccc1` (configuration not stated), the outcome was “inactive; multisex inactive; multispecies inactive”.

Take `c1ccc(Nc2ccc(Nc3ccccc3)cc2)cc1`: the outcome was “inactive; multisex inactive; multispecies inactive”.

For the molecule `CC(=O)CN(C)N=O`, the outcome is “active; multisite active; multisex active”.

On to `CCCCC/C=N/N(C)C=O`, for which the outcome is “active; multisite active; multisex active”.

Take `CC(O)CO` (configuration not stated): the outcome was “inactive; multisex inactive”.

Consider `CC(O)CN(C)c1ccc(NN)nn1` (configuration not stated), for which the outcome was “inactive; multisex inactive”.

On to `Cc1cc(-c2ccc(N)c(C)c2)ccc1N`, for which the outcome was “active; multisite active; multisex active; multispecies active”.

In the case of `C/C=C(\C)C(=O)O[C@@H]1CCN2CC=C(COC(=O)C(O)(C(C)C)C(C)O)[C@H]12` (some centres not stated), the outcome was “active; multisite active”.

Consider `COC(=O)C(C)(C)Oc1ccc(-c2ccc(Cl)cc2)cc1`, for which the outcome was “active; multisite active; multisex active; multispecies active”.

Take `FC(F)(Cl)Cl`: the outcome was “inactive; multisex inactive; multispecies inactive”.

For `Oc1ccccc1-c1ccccc1`, the outcome is “active; multisite active; multisex active”.

Turning to `CCN(CC)C(=S)S`, the outcome is “inactive; multisex inactive; multispecies inactive”.

Consider `CCN(CC)c1cc2oc3cc(=[N+](CC)CC)c(C)cc-3c(-c3ccc(S(=O)(=O)O)cc3S(=O)(=O)[O-])c2cc1C`, for which the outcome is “inactive; multisex inactive”.

As for `ClC1=C(Cl)C2(Cl)C3C(Cl)OC(Cl)C3C1(Cl)C2(Cl)Cl` (configuration not stated), the outcome is “inactive; multisex inactive”.

`COS(C)(=O)=O`: the outcome is “active; multisite active”.

Take `c1ccc2c(c1)Oc1ccccc1O2`: the outcome is “inactive; multisex inactive; multispecies inactive”.

Turning to `O=C1C(O)N=C(c2ccccc2F)c2cc(Cl)ccc2N1CCO` (configuration not stated), the outcome is “inactive; multisex inactive”.

With `c1ccc(-c2ccccc2)cc1`, the outcome is “inactive; multisex inactive”.

Turning to `CCCCC(CC)COC(=O)COc1ccc(Cl)cc1Cl` (configuration not stated), the outcome was “inactive; multisex inactive”.

For the molecule `Clc1ccc(Cl)cc1`, the outcome was “active; multisite active; multisex active; multispecies active”.

`CC(C)C(C(=O)OC(C#N)c1cccc(Oc2ccccc2)c1)c1ccc(Cl)cc1` (configuration not stated): the outcome is “inactive; multisex inactive; multispecies inactive”.

Turning to `O=NN1CCOC1`, the outcome was “active; multisite active; multisex active”.

`C=CCOc1ccc(CC(=O)O)cc1Cl`: the outcome was “inactive; multisex inactive”.

`COc1cc(N)ccc1N=Nc1ccccc1`: the outcome is “inactive; multisex inactive”.

For the molecule `O=C1NCCN1/N=C/c1ccc([N+](=O)[O-])o1`, the outcome was “active; multisite active”.

Regarding `Oc1ccc(OCc2ccccc2)cc1`, the outcome was “inactive; multisex inactive”.

Turning to `Nc1ccc(Cc2ccc(N)cc2)cc1`, the outcome is “active; multisite active; multisex active; multispecies active”.
